Experimental data: ChEMBL document CHEMBL5385895, “Design, synthesis, biological evaluation of urea substituted 1,2,5-oxadiazole-3-carboximidamides as novel indoleamine 2,3-dioxygenase-1 (IDO1) inhibitors” (Eur J Med Chem, 2023)
The source made the active and inactive calls. The rule behind the calls is not given here.

Columns and labels:
[1] = molecular target: T1, Indoleamine 2,3-dioxygenase 2 (Homo sapiens) (UniProt Q6ZQW0); assay: Inhibition of human recombinant IDO2 assessed as reduction in N-formylkynurenine formation using L-tryptophan as substrate at 1 uM preincubated for 30 mins followed by substrate addition and measured after 20 mins by SpectraMax microplate reader analysis; conditions: time 50.0 min
T1 sequence (whole entry): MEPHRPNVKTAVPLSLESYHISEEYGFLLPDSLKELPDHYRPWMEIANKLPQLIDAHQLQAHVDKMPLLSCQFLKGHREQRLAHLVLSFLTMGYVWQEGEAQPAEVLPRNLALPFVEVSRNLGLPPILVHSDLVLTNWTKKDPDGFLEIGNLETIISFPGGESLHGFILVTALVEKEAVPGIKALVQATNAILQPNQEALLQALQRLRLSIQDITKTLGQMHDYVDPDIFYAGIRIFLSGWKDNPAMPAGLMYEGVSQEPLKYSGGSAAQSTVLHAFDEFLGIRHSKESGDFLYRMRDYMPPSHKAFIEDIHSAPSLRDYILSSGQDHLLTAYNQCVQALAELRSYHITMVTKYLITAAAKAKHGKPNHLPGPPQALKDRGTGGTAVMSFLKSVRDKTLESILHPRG

[2] = molecular target: Tryptophan 2,3-dioxygenase (Homo sapiens) (UniProt P48775); assay: Inhibition of human recombinant TDO assessed as reduction in N-formylkynurenine formation using L-tryptophan as substrate at 1 uM preincubated for 30 mins followed by substrate addition and measured after 20 mins by SpectraMax microplate reader analysis; conditions: time 50.0 min
[3] = molecular target: T2, Indoleamine 2,3-dioxygenase 1 (Homo sapiens, UniProt P14902); assay: Inhibition of human recombinant IDO1 assessed as reduction in N-formylkynurenine formation using L-tryptophan as substrate preincubated for 30 mins followed by substrate addition and measured after 20 mins by SpectraMax microplate reader analysis
[4] = molecular target: T2, Indoleamine 2,3-dioxygenase 1; assay: Inhibition of IDO1 in IFN-gamma-induced human HeLa cells assessed as reduction in N-formylkynurenine formation using L-tryptophan as substrate preincubated for 24 hrs followed by substrate addition and measured after 30 mins by SpectraMax microplate reader analysis; type: cell-based

T2 sequence (P14902 whole entry): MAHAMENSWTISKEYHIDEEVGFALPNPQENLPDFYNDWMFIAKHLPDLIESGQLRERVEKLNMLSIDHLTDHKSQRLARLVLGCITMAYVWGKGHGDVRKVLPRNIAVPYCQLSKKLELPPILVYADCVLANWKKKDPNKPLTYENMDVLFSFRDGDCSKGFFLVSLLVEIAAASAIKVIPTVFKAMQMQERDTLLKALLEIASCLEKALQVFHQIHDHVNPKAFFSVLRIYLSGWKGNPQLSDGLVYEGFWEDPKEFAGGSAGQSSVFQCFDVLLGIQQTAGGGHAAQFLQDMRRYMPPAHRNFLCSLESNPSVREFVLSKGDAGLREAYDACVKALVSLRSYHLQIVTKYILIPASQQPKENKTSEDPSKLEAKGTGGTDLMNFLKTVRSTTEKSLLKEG
Tryptophan 2,3-dioxygenase (Homo sapiens), sequence (P48775 whole entry, looked up): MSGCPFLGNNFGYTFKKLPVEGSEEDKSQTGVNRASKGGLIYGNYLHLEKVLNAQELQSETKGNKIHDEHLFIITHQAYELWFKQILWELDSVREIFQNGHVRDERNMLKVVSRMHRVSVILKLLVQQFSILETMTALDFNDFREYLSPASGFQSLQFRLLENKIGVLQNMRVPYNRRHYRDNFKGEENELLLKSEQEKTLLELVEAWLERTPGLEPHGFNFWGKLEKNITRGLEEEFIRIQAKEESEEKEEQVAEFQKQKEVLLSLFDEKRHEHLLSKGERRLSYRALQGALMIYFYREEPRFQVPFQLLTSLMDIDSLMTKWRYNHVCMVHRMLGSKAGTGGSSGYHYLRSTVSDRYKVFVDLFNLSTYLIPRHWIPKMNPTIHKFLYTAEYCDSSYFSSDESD

SMILES: NCCNC(=O)Nc1nonc1/C(=N/O)Nc1ccc(F)c(Br)c1
- inhibition [1]: inactive
- inhibition [2]: inactive
- IC50 [3]: > 1000 nM

SMILES: O=C(NCCO)Nc1nonc1/C(=N/O)Nc1ccc(F)c(Br)c1
- inhibition [1]: inactive
- inhibition [2]: inactive
- IC50 [3]: > 1000 nM

SMILES: COc1cccc(NC(=O)Nc2nonc2/C(=N/O)Nc2ccc(F)c(Br)c2)c1
- inhibition [1]: inactive
- inhibition [2]: inactive
- IC50 [3]: 183 nM
- IC50 [4]: 111 nM

SMILES: CN1CCN(C(=O)Nc2nonc2/C(=N/O)Nc2ccc(F)c(Br)c2)CC1
- inhibition [1]: inactive
- inhibition [2]: inactive
- IC50 [3]: 612 nM

SMILES: O=C(Nc1nonc1/C(=N/O)Nc1ccc(F)c(Br)c1)NC1CC1
- inhibition [1]: inactive
- inhibition [2]: inactive
- IC50 [3]: 79.3 nM
- IC50 [4]: 36.5 nM

SMILES: CC(C)NC(=O)Nc1nonc1/C(=N/O)Nc1ccc(F)c(Br)c1
- inhibition [1]: inactive
- inhibition [2]: inactive
- IC50 [3]: 82.6 nM
- IC50 [4]: 58.2 nM

SMILES: COc1ccccc1NC(=O)Nc1nonc1/C(=N/O)Nc1ccc(F)c(Br)c1
- inhibition [1]: inactive
- inhibition [2]: inactive
- IC50 [3]: 298 nM

SMILES: COc1ccc(NC(=O)Nc2nonc2/C(=N/O)Nc2ccc(F)c(Br)c2)cc1OC
- inhibition [1]: inactive
- inhibition [2]: inactive
- IC50 [3]: 331 nM

SMILES: O=C(NCC1CCC1)Nc1nonc1/C(=N/O)Nc1ccc(F)c(Br)c1
- inhibition [1]: inactive
- inhibition [2]: inactive
- IC50 [3]: 109 nM
- IC50 [4]: 41.1 nM

SMILES: O=C(Nc1ccc(Cl)cc1)Nc1nonc1/C(=N/O)Nc1ccc(F)c(Br)c1
- inhibition [1]: inactive
- inhibition [2]: inactive
- IC50 [3]: 311 nM

SMILES: NCCCNC(=O)Nc1nonc1/C(=N/O)Nc1ccc(F)c(Br)c1
- inhibition [1]: inactive
- inhibition [2]: inactive
- IC50 [3]: > 1000 nM

SMILES: O=C(Nc1nonc1/C(=N/O)Nc1ccc(F)c(Br)c1)N1CCC1
- inhibition [1]: inactive
- inhibition [2]: inactive
- IC50 [3]: 632 nM

SMILES: COCCCNC(=O)Nc1nonc1/C(=N/O)Nc1ccc(F)c(Br)c1
- inhibition [1]: inactive
- inhibition [2]: inactive
- IC50 [3]: > 1000 nM

SMILES: O=C(NCC1CCCCC1)Nc1nonc1/C(=N/O)Nc1ccc(F)c(Br)c1
- inhibition [1]: inactive
- inhibition [2]: inactive
- IC50 [3]: 847 nM

SMILES: O=C(Nc1nonc1/C(=N/O)Nc1ccc(F)c(Br)c1)NC1CCC1
- inhibition [1]: inactive
- inhibition [2]: inactive
- IC50 [3]: 166 nM
- IC50 [4]: 31.7 nM

SMILES: CN(C)C(=O)Nc1nonc1/C(=N/O)Nc1ccc(F)c(Br)c1
- inhibition [1]: inactive
- inhibition [2]: inactive
- IC50 [3]: 347 nM

SMILES: CC(C)CNC(=O)Nc1nonc1/C(=N/O)Nc1ccc(F)c(Br)c1
- inhibition [1]: inactive
- inhibition [2]: inactive
- IC50 [3]: 96.3 nM
- IC50 [4]: 41.7 nM

SMILES: CN(C)CCNC(=O)Nc1nonc1/C(=N/O)Nc1ccc(F)c(Br)c1
- inhibition [1]: inactive
- inhibition [2]: inactive
- IC50 [3]: > 1000 nM

SMILES: O=C(Nc1nonc1/C(=N/O)Nc1ccc(F)c(Br)c1)NC1CCCCC1
- inhibition [1]: inactive
- inhibition [2]: inactive
- IC50 [3]: 544 nM

SMILES: O=C(Nc1nonc1/C(=N/O)Nc1ccc(F)c(Br)c1)N1CCCC1
- inhibition [1]: inactive
- inhibition [2]: inactive
- IC50 [3]: > 1000 nM

SMILES: O=C(Nc1nonc1/C(=N/O)Nc1ccc(F)c(Br)c1)NC1CCCC1
- inhibition [1]: inactive
- inhibition [2]: inactive
- IC50 [3]: 314 nM

SMILES: NCCCCNC(=O)Nc1nonc1/C(=N/O)Nc1ccc(F)c(Br)c1
- inhibition [1]: inactive
- inhibition [2]: inactive
- IC50 [3]: > 1000 nM

SMILES: O=C(Nc1nonc1/C(=N/O)Nc1ccc(F)c(Br)c1)N1CCC(O)C1 (stereo not drawn)
- inhibition [1]: inactive
- inhibition [2]: inactive
- IC50 [3]: > 1000 nM

SMILES: O=C(Nc1nonc1/C(=N/O)Nc1ccc(F)c(Br)c1)N1CCCCC1
- inhibition [1]: inactive
- inhibition [2]: inactive
- IC50 [3]: > 1000 nM
